Measured values published in patent US12187710B2, “Salt of Syk inhibitor and crystalline form thereof” (CHIA TAI TIANQING PHARMACEUTICAL GROUP CO., LTD., priority 2018, dated 2025).
Where a name gives a salt, the structure may show the parent alone.

How the values were obtained:
[1] = Stability of crystalline form suspended in organic solvent (XRPD); assay type: physicochemical; settings: methanol, ethanol, ethyl acetate, acetone, acetonitrile, tetrahydrofuran, 1,4-dioxane, n-hexane; 20° C. and 50° C., 24 h
Procedure: After being added with methanol (4 mL), the glass vial was placed on a magnetic stirrer, and the mixture was stirred at 20° C. and 50° C., each for 24 h.
According to the above method, ethanol, ethyl acetate, acetone, acetonitrile, tetrahydrofuran, 1,4-dioxane and n-hexane were used as solvents to conduct parallel tests.

[2] = Stability of crystalline form at high temperature, high humidity and illumination (XRPD); assay type: physicochemical
Text: The vials in which the samples were placed at high temperature and high humidity were sealed with aluminum foil, and small holes were provided in the aluminum foil to ensure that the samples were sufficiently contacted with atmospheric air. The vial in which the sample was placed under strong light was placed open without sealing with aluminum foil. The samples placed under different conditions were taken and tested for XRPD spectrum on day 5 and day 10.

[3] = Hygroscopicity by dynamic vapor sorption (DVS); assay type: physicochemical
Procedure: Instrument: SMS DVS Advantage;
The DVS parameters are as follows:
Balancing: dm/dt=0.01%/min (shortest: 10 min, longest: 180 min)
drying: drying at 0% RH for 120 min
RH (%) test gradient: 10%
Range of RH (%) test gradient: 0%-90%-0%

AKT phosphorylation = assay: In vitro test of inhibition on AKT phosphorylation in IgM-stimulated Ramos cells (ELISA); assay type: cell-based; settings: anti-human IgM stimulation
Text: 5.1 Purpose of experiment: to detect the protein kinase AKT phosphorylation in cells by enzyme-linked immunosorbent assay (ELISA), and evaluate the inhibition of the compound on the AKT phosphorylation by taking the half-inhibitory concentration (IC50) value of the compound as an index. […]

XRPD spectrum after suspension in solvent [1]	Crystalline form ([2]; Day 0 (initial), XRPD)	Crystalline form ([2]; High humidity (room temperature/relative humidity 92.5%, open), Day 5, XRPD)	Crystalline form ([2]; High humidity (room temperature/relative humidity 92.5%, open), Day 10, XRPD)	Crystalline form ([2]; High temperature (60° C., open), Day 5, XRPD)	Crystalline form ([2]; High temperature (60° C., open), Day 10, XRPD)	Crystalline form ([2]; Illumination (total illuminance of 1.2 × 10^6 Lux·hr/near UV energy of 200 w·hr/m^2, open), XRPD)	Stability under high temperature, high humidity and illumination ([2]; overall conclusion)	ΔW (DVS weight gain) ([3]; 25° C., RH 0%-90%-0%)	Hygroscopicity ([3]; 25±1° C. and 80±2% RH)	IC50 (AKT phosphorylation)	SMILES
doesn't change	Form A crystal	Form A crystal	Form A crystal	Form A crystal	Form A crystal	Form A crystal	good stability	1.371%	less hygroscopic	–	Cn1c(=O)c(Nc2ccc(N3CCN(C4COC4)CC3)cn2)cc2c(F)c(-c3cc[nH]n3)ccc21 [5-fluoro-1-methyl-3-((5-(4-(oxetan-3-yl)piperazin-1-yl)pyridin-2-yl)amino)-6-(1H-pyrazol-3-yl)quinolin-2(1H)-one hydrochloride]
–	–	–	–	–	–	–	–	–	–	170 nM	Cn1c(=O)c(Nc2ccc(N3CCN(C4COC4)CC3)cn2)cc2c(F)c(-c3cc[nH]n3)ccc21 [Compound of formula I, 5-fluoro-1-methyl-3-((5-(4-(oxetan-3-yl)piperazin-1-yl)pyridin-2-yl)amino)-6-(1H-pyrazol-3-yl)quinolin-2(1H)-one]
